Experimental data from patent US20260007639A1, “COMPOUNDS FOR THE TREATMENT OF NEUROMUSCULAR DISORDERS” (NMD PHARMA A/S, priority 2017, published 2026).
Read-outs that look alike come from different tables or passages of the source.

What was measured:
CIC-1 channels = target: T1, CIC-1 channels (Rattus norvegicus, UniProt P35524); assay: Electrophysiological measurement of compound inhibition of CIC-1 (Gm) in rat soleus muscle fibres: EC50 (Table 7)
T1 sequence (P35524 1-994): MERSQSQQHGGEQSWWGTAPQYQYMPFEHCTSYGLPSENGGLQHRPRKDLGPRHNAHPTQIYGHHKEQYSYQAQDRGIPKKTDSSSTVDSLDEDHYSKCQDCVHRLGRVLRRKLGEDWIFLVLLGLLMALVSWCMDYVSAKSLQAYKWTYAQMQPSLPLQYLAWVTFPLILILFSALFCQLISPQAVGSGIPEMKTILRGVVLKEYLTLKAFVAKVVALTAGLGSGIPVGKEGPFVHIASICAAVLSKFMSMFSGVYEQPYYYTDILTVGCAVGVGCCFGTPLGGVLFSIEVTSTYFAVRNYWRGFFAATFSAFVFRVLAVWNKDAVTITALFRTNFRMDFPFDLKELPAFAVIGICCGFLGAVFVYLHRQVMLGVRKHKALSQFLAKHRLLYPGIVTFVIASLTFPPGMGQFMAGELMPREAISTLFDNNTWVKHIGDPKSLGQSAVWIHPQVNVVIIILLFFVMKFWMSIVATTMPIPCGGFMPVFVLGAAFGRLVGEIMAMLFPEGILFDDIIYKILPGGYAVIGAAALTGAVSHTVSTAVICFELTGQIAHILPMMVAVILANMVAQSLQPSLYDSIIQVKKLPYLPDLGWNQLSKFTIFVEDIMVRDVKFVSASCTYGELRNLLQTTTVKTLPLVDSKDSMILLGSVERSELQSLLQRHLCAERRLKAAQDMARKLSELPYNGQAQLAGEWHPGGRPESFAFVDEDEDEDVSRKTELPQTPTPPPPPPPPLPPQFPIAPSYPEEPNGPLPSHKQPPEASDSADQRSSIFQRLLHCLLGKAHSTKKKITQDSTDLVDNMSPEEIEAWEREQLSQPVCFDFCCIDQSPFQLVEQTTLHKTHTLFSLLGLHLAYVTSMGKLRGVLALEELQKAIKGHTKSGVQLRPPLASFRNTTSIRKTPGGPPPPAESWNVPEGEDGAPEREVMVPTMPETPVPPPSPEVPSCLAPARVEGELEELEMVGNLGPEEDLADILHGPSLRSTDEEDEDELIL

rat soleus muscles [1] = assay: Recovery of force in isolated rat soleus nerve-muscle preparations after 115 nM tubocurarine, 50 μM compound (Table 8); details: 40 mins exposure
Protocol: Force traces from a representative muscle stimulated to contract in 1) control condition before addition of neuromuscular blocking agent, 2) the force response to stimulation after 90 minutes incubation with Tubocurarine. […] The traces presented in FIG. 12A (1, 2, 3), correspond to the dotted lines in FIG. 12B, respectively.
Recovery of force is quantified as the percentage of the force prior to tubocurarine that is recovered by the compound.
The current invention relates to compounds that inhibit CIC-1 ion channels and increase muscle excitability and thereby improve muscle function in clinical conditions where muscle activation is failing. Such conditions result in loss of contractile function of skeletal muscle, weakness and excessive fatigue. In this series of experiments the compounds were tested for their ability to restore contractile function of isolated rat muscle when the neuromuscular transmission had been compromised akin to neuromuscular disorders.
Experimentally, soleus muscles from 4-5 wk old rats were isolated with the motor nerve remaining attached. The nerve-muscle preparations were mounted in experimental setups that enabled electrical stimulation of the motor nerve. Stimulation of the motor nerve led to activation of the muscle fibres and ensuing force production that was recorded.
After mounting the nerve-muscle preparation in the experimental setup, the contractile function of the muscle was initially assessed under the control conditions (FIG. 2A). […] The experimental condition mimics the failing neuromuscular transmission in a range of neuromuscular disorders. After addition of tubocurarine the contractile force declined over the next 90 mins to 10-50% of the control force. 50 μM of the test compound was then added and the contractile force recovered despite the continued presence of tubocurarine. To quantify the ability of the compound to restore force the percentage of the initial force that was restored was determined after 40 mins of compound exposure (FIG. 2B) and the point increase is reported in Table 8.

rat soleus muscles [2] = assay: Recovery of nerve-stimulated force in isolated rat soleus muscles exposed to sub-maximal tubocurarine (Table 1); details: for 500 μM % change after addition (AUC force): 500 μM compound
Protocol: The motor nerve was stimulated every 10 min for 2 s with 30 Hz with field stimulation using short duration pulses. […] Traces are shown before addition tubocurarine, after 40 min with tubocurarine, and after 110 min tubocurarine. […] This recovery of force was used in Table 1.
Experiments were performed using rat soleus muscles from either young (4-wk-old) or adult Wistar rats (12-14-week-old). Animal handling, killing and isolation of muscle is described elsewhere All experiments were performed using normal Krebs-Ringer bicarbonate solution (NKR). In solutions with elevated Mg^2+, MgCl^2 was added to NKR-solution causing minor increases in osmolarity and ionic strength. In solutions with elevated K^+, 4 mM NaCl was replaced by 4 mM KCl in the NKR.
In all contraction experiments, isometric force production was determined and force produced during contractions was quantified by measuring the integral of the force response (AUC). Stimulation and force recordings have been described elsewhere. […] In these latter experiments, extracellular recordings of action potentials (M-waves) could be measured without temporal overlap with stimulation artefacts.
The aim was to find compounds that by inhibition of CIC-1 channels can recover nerve-stimulated force under conditions of fatigue including conditions where fatigue is caused by compromised neuromuscular transmission. Neuromuscular transmission dysfunction can develop because of both pre- and/or post-synaptic complications in connection with a disorder or as part of neuromuscular blockade during/after surgery. In the initial series of drug testing, experiments were performed with isolated muscles in the presence of sub-maximal ACh receptor antagonist tubocurarine. Since the inclusion of tubocurarine caused a partial loss of neuromuscular transmission this experiment mimics the conditions in myasthenia gravis and neuromuscular blockade. To mimic conditions with pre-synaptic complication (Lambert Eaton syndrome, motor neuron disorder, polyneuropathy) the intact nerve-muscle preparations were incubated at elevated extracellular Mg^2+, which is known to suppress release of ACh from nerve terminals of motor neurons. […]
For comparison with the muscle only exposed to tubocurarine (grey trace), the two traces have been overlaid. […] For comparison, muscles only exposed to tubocurarine have been included. The dotted line indicates the recovery of force with C8 when compared to the force production before its addition. This value was used in Table 1 for evaluation of the efficacy of the different compounds in recovering force.

[3] = 150 μM compound, % change in AUC compared to AUC before addition, after 40 min in tubocurarine
[4] = % change in AUC compared to AUC before addition, after 40 min in tubocurarine

| Structure (SMILES) | EC50 (CIC-1 channels) [µM] | Point increase (%) of initial force that was restored (rat soleus muscles [1]) [%] | further results |
| --- | --- | --- | --- |
| C[C@@H](Oc1ccc(Br)cc1-c1ccno1)C(=O)O [(2R)-A-22] | > 80 | −3 | – |
| CC[C@H](Oc1ccc(Br)cc1-c1ccno1)C(=O)O [Compound A-1, (2S)-2-[4-bromo-2-(1,2-oxazol-5-yl)phenoxy]butanoic acid] | 12.4 | 18 | – |
| CC(C)[C@H](Oc1ccc(Br)cc1-c1ccon1)C(=O)O [Compound A-3, (2S)-2-[4-bromo-2-(1,2-oxazol-3-yl)phenoxy]-3-methylbutanoic acid] | 11.6 | – | – |
| C[C@H](Oc1ccc(Br)cc1-c1cc(C2CC2)on1)C(=O)O [Compound A-11, (2S)-2-[4-bromo-2-(5-cyclopropyl-1,2-oxazol-3-yl)phenoxy]propanoic acid] | 10.3 | 19 | – |
| O=C(O)[C@H](CF)Oc1ccc(Br)cc1-c1ccno1 [Compound A-21, (2R)-2-[4-bromo-2-(1,2-oxazol-5-yl)phenoxy]-3-fluoropropanoic acid] | – | 13 | – |
| CC[C@H](Oc1ccc(Cl)cc1-c1ccon1)C(=O)O [Compound A-35, (2S)-2-[4-chloro-2-(1,2-oxazol-3-yl)phenoxy]butanoic acid] | 10.4 | 28 | – |
| O=C(O)[C@H](CF)Oc1ccc(Cl)cc1-c1ccon1 [Compound A-39, (2R)-2-[4-chloro-2-(1,2-oxazol-3-yl)phenoxy]-3-fluoropropanoic acid] | 5.2 | 36 | – |
| C[C@H](Oc1ccc(Cl)cc1-c1cocn1)C(=O)O [Compound A-46, (2S)-2-[4-chloro-2-(1,3-oxazol-4-yl)phenoxy]propanoic acid] | – | 11 | – |
| O=C(O)[C@H](CF)Oc1cc(F)c(Cl)cc1-c1ccon1 [Compound A-47, (2R)-2-[4-chloro-5-fluoro-2-(1,2-oxazol-3-yl)phenoxy]-3-fluoropropanoic acid] | 7.7 | 19 | – |
| CC[C@H](Oc1ccc(Cl)cc1-c1ccno1)C(=O)O [Compound A-49, (2S)-2-[4-chloro-2-(1,2-oxazol-5-yl)phenoxy]butanoic acid] | – | 16 | – |
| O=C(O)[C@H](CC1CC1)Oc1ccc(Cl)cc1-c1ccno1 [Compound A-52, (2S)-2-[4-chloro-2-(1,2-oxazol-5-yl)phenoxy]-3-cyclopropylpropanoic acid] | – | 11 | – |
| C[C@H](Oc1ccc(Cl)cc1-c1csnn1)C(=O)O [Compound A-62, (2S)-2-[4-chloro-2-(1,2,3-thiadiazol-4-yl)phenoxy]propanoic acid] | 9.4 | 17 | – |
| O=C(O)[C@H](CF)Oc1cc(F)c(Br)cc1-c1ccon1 [Compound A-63, (2R)-2-[4-bromo-5-fluoro-2-(1,2-oxazol-3-yl)phenoxy]-3-fluoropropanoic acid] | 10.8 | 23 | – |
| O=C(O)[C@H](CF)Oc1ccc(Br)cc1-c1csnn1 [Compound A-66, (2R)-2-[4-bromo-2-(1,2,3-thiadiazol-4-yl)phenoxy]-3-fluoropropanoic acid] | – | 13 | – |
| CC[C@H](Oc1ccc(Br)cc1-c1csnn1)C(=O)O [Compound A-67, (2S)-2-[4-bromo-2-(1,2,3-thiadiazol-4-yl)phenoxy]butanoic acid] | – | 13 | – |
| O=C(O)COc1ccc(Br)cc1-c1ccno1 [Compound A-69, 2-[4-bromo-2-(1,2-oxazol-5-yl)phenoxy]acetic acid] | 7.8 | 15 | – |
| O=C(O)[C@H](CC1CCC1)Oc1ccc(Br)cc1-c1ccon1 [Compound A-71, (2S)-2-[4-bromo-2-(1,2-oxazol-3-yl)phenoxy]-3-cyclobutylpropanoic acid] | 6.5 | 15 | – |
| O=C(O)[C@H](CC1CC1)Oc1ccc(Br)cc1-c1csnn1 [Compound A-75, (2S)-2-[4-bromo-2-(1,2,3-thiadiazol-4-yl)phenoxy]-3-cyclopropylpropanoic acid] | – | 10 | – |
| O=C(O)COc1ccc(Cl)cc1-c1ccno1 [Compound A-78, 2-[4-chloro-2-(1,2-oxazol-5-yl)phenoxy]acetic acid] | – | 17 | – |
| O=C(O)COc1ccc(Br)cc1-c1csnn1 [Compound A-79, 2-[4-bromo-2-(1,2,3-thiadiazol-4-yl)phenoxy]acetic acid] | – | 17 | – |
| C[C@H](OCc1ccccc1)C(=O)O [Compound C5, (2S)-2-(benzyloxy)propanoic acid] | – | – | 150 μM % change after addition (AUC force) (rat soleus muscles [2]; [3]): 1%; 500 μM % change after addition (AUC force) (rat soleus muscles [2]; [4]): 42% |
| CC(C(=O)O)S(=O)(=O)c1ccc(F)cc1 (stereo not drawn) [Compound C6, 2-(4-fluorobenzenesulfonyl)propanoic acid] | – | – | 150 μM % change after addition (AUC force) (rat soleus muscles [2]; [3]): −8%; 500 μM % change after addition (AUC force) (rat soleus muscles [2]; [4]): 9% |
| CCC(Oc1ccc(Cl)cc1)C(=O)O (stereo not drawn) [Compound C7, 2-(4-chlorophenoxy)butanoic acid] | – | – | 150 μM % change after addition (AUC force) (rat soleus muscles [2]; [3]): 0%; 500 μM % change after addition (AUC force) (rat soleus muscles [2]; [4]): 40% |
| Cl.NCC(Oc1ccc(F)cc1)C(=O)O (stereo not drawn) [Compound C9, 3-amino-2-(4-fluorophenoxy)propanoic acid hydrochloride] | – | – | 150 μM % change after addition (AUC force) (rat soleus muscles [2]; [3]): −13%; 500 μM % change after addition (AUC force) (rat soleus muscles [2]; [4]): 5% |
| CC(Oc1ccc(Cl)cc1)C(=O)Oc1ccc(Cl)cc1 (stereo not drawn) [Compound C11, 4-chlorophenyl 2-(4-chlorophenoxy)propanoate] | – | – | 50 μM % change after addition (AUC force) (rat soleus muscles [2]): 46%; 150 μM % change after addition (AUC force) (rat soleus muscles [2]): 54% |
| COCC(C)C(Oc1ccc(Br)cc1)C(=O)O (stereo not drawn) [Compound C21, 2-(4-bromophenoxy)-4-methoxy-3-methylbutanoic acid] | – | – | 150 μM % change after addition (AUC force) (rat soleus muscles [2]; [3]): 7%; 500 μM % change after addition (AUC force) (rat soleus muscles [2]; [4]): 36% |
